These are literature values, as cited in paper PMC3720659, “Integrated Analysis of Drug-Induced Gene Expression Profiles Predicts Novel hERG Inhibitors” (PLoS ONE, 2013).

Where two headings read alike, the source gives them in different places.

This data set concerns hERG current. The conditions noted are these: cited from earlier work.
[1] abbreviates: annotation of the drug, Cell Line (HL60, MCF7, PC3) is the cell line of the drug-induced expression profile, not of the hERG assay, ref hERGcentral.
[2] abbreviates: hERG inhibition annotation of the drug, the Cell Line (HL60, MCF7, PC3) is the cell line of the expression profile, not of the hERG test.
The mark [3] stands for this setting: hERG annotation of the drug, the Cell Line (HL60, MCF7, PC3) names the expression profile, not the hERG test.

For the molecule `Cc1ccc(S(=O)(=O)NC(=O)NN2CCCCCC2)cc1` [tolazamide], under setting [1], the “Annotation (hERG inhibition class, Active/Inactive by IC50)” value is “Inactive”.

In the case of `CCOC(=O)c1ccc(OC(=O)CCCCCNC(=N)N)cc1` [gabexate], the “Annotation (hERG Active / Inactive)” value under setting [2] is recorded as “Inactive”. `COc1ccc(C[C@H](N)C(=O)N[C@H]2[C@@H](O)[C@H](n3cnc4c(N(C)C)ncnc43)O[C@@H]2CO)cc1` [puromycin]: the “Annotation (hERG inhibition class, Active/Inactive by IC50)” value under setting [1] is “Inactive”. `Cc1cccc(N(C)C(=S)Oc2ccc3ccccc3c2)c1` [tolnaftate]: the “Annotation (hERG inhibition class, Active/Inactive by IC50)” value under setting [1] is on record as “Inactive”. Regarding `COCC(=O)Nc1c(I)c(C(=O)NCC(O)CO)c(I)c(C(=O)N(C)CC(O)CO)c1I` (stereo not shown) [iopromide], the “Annotation (hERG Active / Inactive)” value under setting [2] was “Inactive”. Turning to `CC(=O)Oc1ccccc1C(=O)O` [acetylsalicylic acid], the “Annotation (hERG Active / Inactive)” value under setting [3] was “Inactive”.

With nitrendipine, under setting [2], the “Annotation (hERG Active / Inactive)” value is on record as “Inactive”. For the molecule `O=C1OC(CN2CCOCC2)CN1/N=C/c1ccc([N+](=O)[O-])o1` (stereo not shown) [furaltadone], the “Annotation (hERG Active / Inactive)” value under setting [2] is given as “Inactive”. In the case of `CC(=O)[C@@]1(O)CC[C@H]2[C@@H]3C[C@H](C)C4=CC(=O)C=C[C@]4(C)[C@@]3(F)[C@@H](O)C[C@@]21C` [fluorometholone], under setting [2], the “Annotation (hERG Active / Inactive)” value was “Inactive”. As to `CC(Cc1cccc(C(F)(F)F)c1)NCCOC(=O)c1ccccc1` (stereo not shown) [benfluorex], under setting [3], the “Annotation (hERG Active / Inactive)” value is “Inactive”.

`CC(CCc1ccccc1)NCC(O)c1ccc(O)c(C(N)=O)c1` (stereo not shown) [labetalol]: the “Annotation (hERG Active / Inactive)” value under setting [2] is listed as “Inactive”. For the molecule `CC(C)NCC(O)COc1ccc(COCCOC(C)C)cc1` (stereo not shown) [bisoprolol], the “Annotation (hERG Active / Inactive)” value under setting [3] was “Inactive”. With `C[C@@H](O)[C@H]1C(=O)N2C(C(=O)O)=C(S[C@@H]3CN[C@H](C(=O)N(C)C)C3)[C@H](C)[C@H]12` [meropenem], the “Annotation (hERG Active / Inactive)” value under setting [2] is “Inactive”. As for `CCN(CC)CCNC(=O)c1cc(Cl)c(N)cc1OC` [metoclopramide], the “Annotation (hERG Active / Inactive)” value under setting [2] is “Inactive”. For `COc1ccc(CCN2CCC(Nc3nc4ccccc4n3Cc3ccc(F)cc3)CC2)cc1` [astemizole], the “Annotation (hERG Active / Inactive)” value was “Active”. With `Oc1ccc(/C=C/c2cc(O)cc(O)c2)cc1` [resveratrol], the “Annotation (hERG inhibition class, Active/Inactive by IC50)” value under setting [1] is recorded as “Inactive”. Take triamcinolone: the “Annotation (hERG inhibition class, Active/Inactive by IC50)” value under setting [1] is “Inactive”. Turning to `COC(=O)[C@H]1[C@H]2C[C@@H]3c4[nH]c5cc(OC)ccc5c4CCN3C[C@H]2C[C@@H](OC(=O)/C=C/c2cc(OC)c(OC)c(OC)c2)[C@@H]1OC` [rescinnamine], the “Annotation (hERG inhibition class, Active/Inactive by IC50)” value under setting [1] was “Inactive”.

Take `Cc1ccc(N(CC2=NCCN2)c2cccc(O)c2)cc1` [phentolamine]: the “Annotation (hERG Active / Inactive)” value under setting [2] is “Active”. Consider `CC(COc1ccccc1)N(CCCl)Cc1ccccc1` (stereo not shown) [phenoxybenzamine], for which the “Annotation (hERG Active / Inactive)” value under setting [2] was “Inactive”. Consider `CCCCNc1cc(C(=O)O)cc(S(N)(=O)=O)c1Oc1ccccc1` [bumetanide], for which the “Annotation (hERG Active / Inactive)” value under setting [3] is recorded as “Inactive”. On to `COc1ncnc(NS(=O)(=O)c2ccc(N)cc2)c1OC` [sulfadoxine], for which the “Annotation (hERG inhibition class, Active/Inactive by IC50)” value under setting [1] is “Inactive”. `Cc1ccc(/C(=C\CN2CCCC2)c2ccccn2)cc1` [triprolidine]: the “Annotation (hERG inhibition class, Active/Inactive by IC50)” value under setting [1] was “Active”. Regarding `CCCCNC(=O)NS(=O)(=O)c1ccc(C)cc1` [tolbutamide], under setting [1], the “Annotation (hERG inhibition class, Active/Inactive by IC50)” value is “Inactive”. On to `CN1CCN(C2=Nc3ccccc3Oc3ccc(Cl)cc32)CC1` [loxapine], for which the “Annotation (hERG Active / Inactive)” value under setting [2] was “Inactive”. Regarding `NCC1(CC(=O)O)CCCCC1` [gabapentin], the “Annotation (hERG Active / Inactive)” value under setting [2] is “Inactive”.

As to `C[C@H]1C[C@H]2[C@@H]3CCC4=CC(=O)C=C[C@]4(C)[C@@]3(F)[C@@H](O)C[C@]2(C)[C@@]1(O)C(=O)CO` [betamethasone], under setting [3], the “Annotation (hERG Active / Inactive)” value is “Inactive”.

With `CCCN1C[C@H](CSC)C[C@@H]2c3cccc4[nH]cc(c34)C[C@H]21` [pergolide], under setting [2], the “Annotation (hERG Active / Inactive)” value is reported as “Inactive”.

Take `NC(=O)N1c2ccccc2C=Cc2ccccc21` [carbamazepine]: the “Annotation (hERG Active / Inactive)” value under setting [3] is “Inactive”. For the molecule `OC(CCN1CCCC1)(c1ccccc1)C1CCCCC1` (stereo not shown) [procyclidine], the “Annotation (hERG Active / Inactive)” value under setting [2] is “Inactive”. As for `C[C@@H]1O[C@@H](O[C@H]2C[C@@H](O)[C@]3(CO)[C@H]4[C@H](O)C[C@]5(C)[C@@H](C6=CC(=O)OC6)CC[C@]5(O)[C@@H]4CC[C@]3(O)C2)[C@H](O)[C@H](O)[C@H]1O` [ouabain], the “Annotation (hERG Active / Inactive)” value is recorded as “Inactive”. On to `CN(C)CCOC(=O)C(c1ccccc1)C1(O)CCCC1` (stereo not shown) [cyclopentolate], for which, under setting [3], the “Annotation (hERG Active / Inactive)” value was “Inactive”. With `CC(C)n1c(/C=C/C(O)CC(O)CC(=O)O)c(-c2ccc(F)cc2)c2ccccc21` (stereo not shown) [fluvastatin], the “Annotation (hERG Active / Inactive)” value under setting [2] was “Inactive”.

Regarding `CNC(C)(C)Cc1ccccc1` [mephentermine], the “Annotation (hERG Active / Inactive)” value under setting [2] is on record as “Inactive”.

In the case of `Clc1ccc(CCC(Cn2ccnc2)Sc2c(Cl)cccc2Cl)cc1` (stereo not shown) [butoconazole], the “Annotation (hERG Active / Inactive)” value under setting [3] is listed as “Inactive”.

Turning to `CCCC(C(=O)OCCN(CC)CC)(c1ccccc1)c1ccccc1` [proadifen], the “Annotation (hERG Active / Inactive)” value under setting [2] was “Active”. Regarding `CCCCC1C(=O)N(c2ccccc2)N(c2ccc(O)cc2)C1=O` (stereo not shown) [oxyphenbutazone], the “Annotation (hERG Active / Inactive)” value under setting [2] is recorded as “Inactive”. Regarding `Fc1ccc(C(c2ccc(F)cc2)N2CCN(C/C=C/c3ccccc3)CC2)cc1` [flunarizine], the “Annotation (hERG Active / Inactive)” value under setting [2] is “Inactive”. For the molecule `NCCc1cc[nH]n1` [betazole], the “Annotation (hERG Active / Inactive)” value under setting [3] is “Inactive”. For the molecule `COc1ccc2cc3[n+](cc2c1OC)CCc1cc2c(cc1-3)OCO2` [berberine], the “Annotation (hERG Active / Inactive)” value under setting [3] was “Inactive”.

As for `CN1CCN(C(c2ccccc2)c2ccc(Cl)cc2)CC1` (stereo not shown) [chlorcyclizine], under setting [3], the “Annotation (hERG Active / Inactive)” value is “Active”. In the case of `CC(=O)O[C@H]1C[C@@]2(C)[C@@H](C[C@@H](O)[C@H]3[C@@]4(C)CC[C@@H](O)[C@@H](C)[C@@H]4CC[C@@]32C)/C1=C(\CCC=C(C)C)C(=O)O` [fusidic acid], under setting [2], the “Annotation (hERG Active / Inactive)” value is “Inactive”.

As to `C[C@@]12C(=O)OC(=O)[C@]1(C)[C@H]1CC[C@@H]2O1` [cantharidin], under setting [3], the “Annotation (hERG Active / Inactive)” value is given as “Inactive”.

Regarding `CN(CCOc1ccc(CC2SC(=O)NC2=O)cc1)c1ccccn1` (stereo not shown) [rosiglitazone], the “Annotation (hERG inhibition class, Active/Inactive by IC50)” value under setting [1] is “Inactive”. Regarding `CC1=NS(=O)(=O)c2cc(Cl)ccc2N1` [diazoxide], the “Annotation (hERG Active / Inactive)” value under setting [3] is reported as “Inactive”. With `Clc1ccc(Cn2c(CN3CCCC3)nc3ccccc32)cc1` [clemizole], the “Annotation (hERG Active / Inactive)” value is “Active”.

For the molecule `C[C@@H]1O[C@@H](O[C@@H]2C=C3CC[C@@H]4[C@H](CC[C@]5(C)[C@@H](c6ccc(=O)oc6)CC[C@]45O)[C@@]3(C)CC2)[C@H](O)[C@H](O)[C@H]1O` [proscillaridin], the “Annotation (hERG inhibition class, Active/Inactive by IC50)” value under setting [1] was “Inactive”. For the molecule `CO[C@@]1(NC(=O)CSCC#N)C(=O)N2C(C(=O)O)=C(CSc3nnnn3C)CS[C@@H]21` [cefmetazole], the “Annotation (hERG Active / Inactive)” value under setting [3] is listed as “Inactive”.

Regarding `Nc1nc(N)c2nc(-c3ccccc3)c(N)nc2n1` [triamterene], the “Annotation (hERG inhibition class, Active/Inactive by IC50)” value is on record as “Inactive”.
